Key:
A549 cells = test: Affymetrix microarray gene expression in CYC202 treated A549 cells; format: cell-based, human; details: 45 and 75 micromolar
Experimental: HT29 and A549 cells, which are derived from human colon and lung tumours respectively, were seeded at approximately 20% confluency, which was equivalent to 1.5×10^6 cells per 10 cm plate in DMEM containing 10% FCS, so that they were actively proliferating upon treatment with the compound the following day.
[…]. RNA was extracted from the A549 cells used in the microarray experiment using TRIZOL reagent (Invitrogen) according to the manufacturer's instructions. For all other cell lines, total RNA was extracted from the cultures with the RNeasy Midi Kit (Qiagen, Hilden, Germany) according to the manufacturer's instructions. […] RNA was eluted in RNase-free water and quantified using RiboGreen (Molecular Probes, Leiden, The Netherlands). […]
RNA extracted from A549 cells was used with the Hu Gene FL Cartridge while RNA from HT-29 cells and PBMC was loaded onto Hu Gene U133A Cartridges. […] The biotinylated cRNA was detected with an antibody amplification step using normal goat IgG as blocking reagent, final concentration 0.1 mg/ml (Sigma) and biotinylated anti-streptavidin antibody (goat), final concentration […] (Vector Laboratories). […] The readings from the quantitative scanning were analysed by the Affymetrix Gene Expression Analysis Software. […]
Data from the Affymetrix Chips were analysed at individual time points following CYC202 treatment.

PNUTS = test: QPCR of PNUTS in whole blood (PAXgene) exposed in vitro to CYC202; format: cell-based, human; details: whole blood of several donors exposed in vitro to 30 μM CYC202 for […]
Experimental: In addition, RNA from whole blood samples was analysed by QPCR. Blood from volunteers was collected into Vacutainer Heparin CPT tubes. […] The blood was then transferred into PAXgene tubes (PreAnalytiX), inverted several times, and placed at −20° C. after an initial incubation of 2 hours at room temperature to allow lysis of the cells. When ready for analysis, blood was left to thaw at room temperature for approximately 2 hours, and then processed according to the manufacturer's instructions. The optional DNase digestion step was included. RNA samples were quantified and then used directly in QPCR assays.
In addition, where the expression levels of housekeeper genes have been measured in these samples, the data has been normalized using a derivative of this formula: 2^ΔCttarget/2^ΔCthousekeeper Results
Blood from volunteers was collected into Vacutainer Heparin CPT tubes at Hawkhill Medical Centre, Dundee and treated as described above in Example 2. […]
Blood that had been stored for various lengths of time and under various storage conditions was left to thaw at room temperature for approximately 2 hours, and then processed according to the manufacturer's instructions. […] RNA samples were quantified and then used directly in QPCR assays.

[1] = Pharmacokinetic analysis of breast cancer patient 02-2-01 (08); format: in vivo, human; details: 600 mg b.i.d. oral, Day 1
Experimental: Effects on PNUTS and other target genes in vitro has been observed with concentrations of 7.5-15 μM for 1.5-3 hours, which is within the range represented here.

Apolipoprotein A1 = test: SELDI-TOF-MS plasma proteomic profile, 28 kDa biomarker cluster; format: in vivo, human; details: plasma fraction 4, SAX chip pH9, 16 Phase 1b patients
Experimental: (§1) All samples were stored at −80° C. in aliquots.
(§2) Proteins were then detected with the ProteinChip® Reader.

7 kDa biomarker cluster = test: SELDI-TOF-MS plasma proteomic profile, 7 kDa biomarker cluster; format: in vivo, human; details: 16 Phase 1b patients, last day of treatment
Experimental: as §1, §2

CDK 7 = CDK 7 (Homo sapiens, UniProt P50613); details: cited from earlier work
CDK 7, sequence (P50613 whole entry, species assumed): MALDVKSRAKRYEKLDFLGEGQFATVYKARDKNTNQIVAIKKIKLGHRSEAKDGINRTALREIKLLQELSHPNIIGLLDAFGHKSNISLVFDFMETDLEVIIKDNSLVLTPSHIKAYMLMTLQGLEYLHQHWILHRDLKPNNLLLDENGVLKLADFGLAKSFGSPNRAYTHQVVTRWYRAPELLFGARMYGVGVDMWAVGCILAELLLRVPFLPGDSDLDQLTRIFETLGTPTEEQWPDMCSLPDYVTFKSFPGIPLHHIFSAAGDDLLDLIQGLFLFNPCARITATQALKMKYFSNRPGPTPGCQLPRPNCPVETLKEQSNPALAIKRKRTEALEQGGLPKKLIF
CDK 7, sequence (P51946 whole entry partner, species assumed): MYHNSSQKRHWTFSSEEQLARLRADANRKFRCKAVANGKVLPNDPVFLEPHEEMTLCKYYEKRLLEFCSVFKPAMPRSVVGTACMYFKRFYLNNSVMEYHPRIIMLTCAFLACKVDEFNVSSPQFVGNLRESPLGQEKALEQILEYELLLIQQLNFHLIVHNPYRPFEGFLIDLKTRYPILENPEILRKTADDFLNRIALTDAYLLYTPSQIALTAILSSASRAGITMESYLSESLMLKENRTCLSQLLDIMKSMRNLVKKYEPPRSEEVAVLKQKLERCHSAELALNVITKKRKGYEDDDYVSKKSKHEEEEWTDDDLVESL

CDK 9 = CDK 9 (Homo sapiens, UniProt P50750); details: cited from earlier work
CDK 9, sequence (P50750 whole entry, species assumed): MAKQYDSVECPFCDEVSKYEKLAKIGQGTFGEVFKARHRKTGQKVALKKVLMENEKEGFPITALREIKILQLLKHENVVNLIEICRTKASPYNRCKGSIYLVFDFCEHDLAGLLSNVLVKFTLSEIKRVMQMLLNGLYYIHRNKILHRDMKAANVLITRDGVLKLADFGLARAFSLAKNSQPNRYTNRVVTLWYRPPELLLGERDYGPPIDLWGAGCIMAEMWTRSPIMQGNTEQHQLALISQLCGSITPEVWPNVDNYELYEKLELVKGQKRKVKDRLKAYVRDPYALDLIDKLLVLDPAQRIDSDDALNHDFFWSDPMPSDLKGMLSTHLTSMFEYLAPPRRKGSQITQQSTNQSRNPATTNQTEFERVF
CDK 9, sequence (O60563 whole entry partner, species assumed): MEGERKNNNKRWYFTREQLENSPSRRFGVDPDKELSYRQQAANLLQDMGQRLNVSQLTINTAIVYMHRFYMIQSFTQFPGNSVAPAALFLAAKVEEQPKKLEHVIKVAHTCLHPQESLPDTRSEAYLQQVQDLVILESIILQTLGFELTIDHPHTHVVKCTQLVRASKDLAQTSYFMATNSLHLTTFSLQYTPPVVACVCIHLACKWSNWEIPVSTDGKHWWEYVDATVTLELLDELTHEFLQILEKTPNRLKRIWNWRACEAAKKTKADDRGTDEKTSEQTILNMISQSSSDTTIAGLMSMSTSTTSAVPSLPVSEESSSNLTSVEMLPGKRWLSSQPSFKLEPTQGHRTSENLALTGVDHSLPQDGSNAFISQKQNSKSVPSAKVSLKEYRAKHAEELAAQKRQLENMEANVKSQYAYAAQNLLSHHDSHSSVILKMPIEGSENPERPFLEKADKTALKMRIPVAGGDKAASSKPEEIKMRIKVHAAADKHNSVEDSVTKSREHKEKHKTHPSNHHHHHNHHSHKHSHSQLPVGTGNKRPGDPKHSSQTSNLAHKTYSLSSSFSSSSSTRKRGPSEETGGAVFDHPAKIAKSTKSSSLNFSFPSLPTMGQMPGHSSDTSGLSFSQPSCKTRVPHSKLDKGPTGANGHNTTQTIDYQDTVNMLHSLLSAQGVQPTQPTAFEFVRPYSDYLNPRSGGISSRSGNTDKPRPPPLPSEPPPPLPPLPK

cell cycle progression = details: cited from earlier work

With `CC[C@H](CO)Nc1nc(NCc2ccccc2)c2ncn(C(C)C)c2n1` [CYC202, 2-(R)-(1-ethyl-2-hydroxyethylamino)-6-benzylamino-9-isopropylpurine] the “gene expression (microarray, genes of FIG. 9/11)” value (A549 cells; 2 hr) was “significantly down regulated”, the “gene expression (microarray, genes of FIG. 10/12)” value (A549 cells; 4 hr) was “significantly down regulated” and the “expression of PNUTS normalised to housekeeper (HPRT)” value (PNUTS) was “reproducibly down-regulated”. For the same compound, the “plasma levels of CYC202” value [1] was “maintained efficacious levels of CYC202 over several hours”, the “normalised intensity M/Z 28126, after treatment group” value (Apolipoprotein A1; last day of treatment, before treatment 32.0+/−9.6, p=0.0058) was 20.4+/−9.9 and the “normalised intensity M/Z 27923, after treatment group” value (Apolipoprotein A1; last day of treatment, before treatment 50.6+/−11.8, p=0.00097) was 31.8+/−13.7. For the same compound, the “change of marker M/Z 28799 after vs before treatment” value (Apolipoprotein A1; p=0.19) was “not deemed to be statistically significant”, the “change of marker M/Z 28292 after vs before treatment” value (Apolipoprotein A1; p=0.95) was “not deemed to be statistically significant” and the “normalised intensity M/Z 6984, after treatment group” value (7 kDa biomarker cluster; neat plasma, CM10 chip, other group 3.1+/−1.2, p=0.0000014) was 42.2+/−11.8. The “normalised intensity M/Z 6787, after treatment group” value (7 kDa biomarker cluster; neat plasma, CM10 chip, other group 5.6+/−1.9, p=0.0000014) was 27.5+/−10.4, the “normalised intensity M/Z 6998, after treatment group” value (7 kDa biomarker cluster; plasma fraction 6, H50 chip, other group 2.1+/−0.7, p=0.0000031) was 42.0+/−9.1 and the “normalised intensity M/Z 6799, after treatment group” value (7 kDa biomarker cluster; plasma fraction 6, H50 chip, other group 2.9+/−1.2, p=0.0000031) was 29.1+/−8.1. The “inhibition of CDK 7” value (CDK 7) was “inhibit”, the “inhibition of CDK 9” value (CDK 9) was “inhibit” and the “effect on cell cycle progression” value (cell cycle progression) was “block cell cycle progression in late G1/early S and in M-phase”.
